Experimental data reported in the supplement of paper PMC7840683.
Structures can show the parent of a compound that is named as a salt. ± gives the standard deviation of the averaged measurements.

Test system: HepaRG
Test: LDH release cytotoxicity, % of total lysis control; higher = more cytotoxic
Conditions: 48 h
Summary of the method: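 The CytoTox-ONE kit was used to read LDH in 50 µL spent medium as resorufin fluorescence on a Tecan Safire, with 0.1% Triton X added to total lysis wells. Beforehand, single-lot HepaRG cells on collagen I-coated 96-well plates had been exposed in duplicate for 48 h to eight-point half-log series (top 100 µM) in serum-free induction medium containing 0.5% DMSO. Percent cytotoxicity was normalized against on-plate vehicle and total lysis controls and averaged over duplicates.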

Row | SMILES | LDH release cytotoxicity (0.03162 µM) | LDH release cytotoxicity (0.1 µM) | LDH release cytotoxicity (0.3162278 µM) | LDH release cytotoxicity (1 µM) | LDH release cytotoxicity (3.16228 µM) | LDH release cytotoxicity (10 µM) | LDH release cytotoxicity (31.6228 µM) | LDH release cytotoxicity (100 µM) | further results
1 | CCCCCCCCCCCCOS(=O)(=O)O [Sodium dodecyl sulfate] | -0.308 ± 0.48% | -0.693 ± 0.47% | -1.14 ± 0.2% | -0.62 ± 0.91% | -1.89 ± 0.58% | -1.05 ± 0.87% | 0.0441 ± 0.35% | 10.1 ± 0.28% | –
2 | CCc1c(C(=O)NN2CCCCC2)nn(-c2ccc(Cl)cc2Cl)c1-c1ccc(Br)cc1 [Surinabant] | -0.47 ± 0.5% | -0.954 ± 0.83% | -1.13 ± 1.6% | -1.44 ± 0.058% | -0.402 ± 0.14% | 2.16 ± 0.28% | 15.8 ± 2.2% | 77.6 ± 2.6% | –
3 | CCCC1=NC(=S)NC(=O)C1 [6-Propyl-2-thiouracil] | -1.25 ± 0.13% | -1.68 ± 0.29% | -2.72 ± 0.31% | -2.49 ± 0.1% | -2.28 ± 0.038% | -1.9 ± 0.03% | -1.25 ± 0.71% | 0.0182 ± 1.5% | –
4 | CCc1nn(C)c(C(=O)NCc2ccc(C(C)(C)C)cc2)c1Cl [Tebufenpyrad] | -1.57 ± 0.17% | -1.25 ± 0.71% | -2.38 ± 0.55% | 5.74 ± 2.5% | 10.5 ± 1.9% | 15.5 ± 3.4% | 23.2 ± 2.7% | 49.6 ± 7.2% | –
5 | COP(=S)(OC)SCn1nnc2ccccc2c1=O [Azinphos-methyl] | -0.213 ± 1.2% | -0.757 ± 0.34% | -1.67 ± 0.55% | -2.01 ± 0.72% | -0.975 ± 0.6% | 0.0858 ± 0.12% | -0.844 ± 0.45% | 0.533 ± 0.78% | –
6 | CCC(c1ccc(O)cc1)C(CC)c1ccc(O)cc1 (stereo not drawn) [meso-Hexestrol] | -1.95 ± 0.96% | -2.35 ± 0.15% | -1.46 ± 0.23% | -1.95 ± 0.05% | -1.99 ± 0.005% | -1.59 ± 0.53% | 0.514 ± 0.37% | 75.4 ± 1.7% | –
7 | CCCCCCCCCCCCCCO [1-Tetradecanol] | -1.1 ± 0.46% | -2.17 ± 0.9% | -0.313 ± 1% | -2.29 ± 0.65% | -2.1 ± 0.054% | -1.49 ± 0.62% | -1.69 ± 0.017% | 6.5 ± 2.2% | –
8 | CCOc1cc(Oc2ccc(C(F)(F)F)cc2Cl)ccc1[N+](=O)[O-] [Oxyfluorfen] | -0.516 ± 0.33% | 0.229 ± 1.1% | -0.848 ± 0.08% | -0.859 ± 0.59% | -0.159 ± 0.1% | -0.932 ± 0.39% | -2.53 ± 0.26% | -1.47 ± 0.42% | –
9 | Nc1ccn(C2OC(CO)C(O)C2O)c(=O)n1 (configuration not stated) [Cytarabine hydrochloride] | -0.941 ± 0.69% | -1.96 ± 0.65% | -0.891 ± 0.29% | -1.56 ± 0.86% | -0.827 ± 0.49% | 0.301 ± 1.5% | 1.76 ± 1.2% | 4.47 ± 2.3% | –
10 | N#Cc1nn(-c2c(Cl)cc(C(F)(F)F)cc2Cl)c(N)c1S(=O)C(F)(F)F (configuration not stated) [Fipronil] | – | – | – | – | – | – | – | – | LDH release cytotoxicity (0.0317809 µM): -1.15 ± 1.5%; LDH release cytotoxicity (0.1005 µM): -0.938 ± 0.22%; LDH release cytotoxicity (0.317809 µM): -1.37 ± 0.65%; LDH release cytotoxicity (1.005 µM): -2.05 ± 0.55%; LDH release cytotoxicity (3.17809 µM): -1.97 ± 1.1%; LDH release cytotoxicity (10.05 µM): -1.68 ± 0.5%; LDH release cytotoxicity (31.7809 µM): 19.3 ± 1.7%; LDH release cytotoxicity (100.5 µM): 59.8 ± 2%
11 | CCCCCCCCn1sccc1=O [Octhilinone] | – | – | – | – | – | – | – | – | LDH release cytotoxicity (0.0328877 µM): -1.41 ± 0.74%; LDH release cytotoxicity (0.104 µM): -1.11 ± 0.18%; LDH release cytotoxicity (0.328877 µM): -1.8 ± 0.29%; LDH release cytotoxicity (1.04 µM): -2.06 ± 0.24%; LDH release cytotoxicity (3.28877 µM): -1.28 ± 0.083%; LDH release cytotoxicity (10.4 µM): -1.43 ± 0.041%; LDH release cytotoxicity (32.8877 µM): -0.0918 ± 0.75%; LDH release cytotoxicity (104 µM): 41.4 ± 8.2%
12 | CC(C)(C)OOC(=O)c1ccccc1 [tert-Butyl perbenzoate] | -1.33 ± 0.72% | -1.77 ± 0.33% | -1.063 ± 0.0015% | -2.35 ± 0.69% | -1.04 ± 1.1% | -1.63 ± 0.41% | -0.865 ± 0.23% | 0.38 ± 0.12% | –
13 | NCC1(Cc2noc(=O)[nH]2)CCCCC1 | -1.45 ± 0.35% | -1.66 ± 0.47% | -1.14 ± 0.84% | -1.29 ± 0.97% | -1.26 ± 0.87% | -1.72 ± 0.14% | -2.07 ± 0.18% | 17.4 ± 1.5% | –
14 | COC(=O)c1c(Cl)c(Cl)c(C(=O)OC)c(Cl)c1Cl [Chlorthal-dimethyl] | -0.87 ± 0.31% | -0.884 ± 1.1% | -1.01 ± 0.16% | -0.618 ± 0.39% | -0.53 ± 0.67% | 0.0929 ± 0.87% | -0.208 ± 0.25% | 1.01 ± 0.28% | –
15 | O=C(O)CC(O)(CC(=O)O)C(=O)O [Citric acid] | 0.134 ± 0.67% | -0.835 ± 0.31% | -0.0952 ± 0.86% | -1.29 ± 0.12% | -0.803 ± 0.025% | 0.951 ± 0.43% | 0.893 ± 0.17% | 0.958 ± 0.17% | –
16 | CCCN(CC)CC1COC2(CCC(C(C)(C)C)CC2)O1 (configuration not stated) [Spiroxamine] | -0.782 ± 0.87% | -1.02 ± 0.35% | 0.233 ± 0.6% | -0.292 ± 0.15% | 0.829 ± 0.38% | 0.738 ± 0.62% | 1.08 ± 0.99% | 1.62 ± 0.76% | –
17 | CCCC(=O)OCC [Ethyl butyrate] | -2.73 ± 0.033% | -1.76 ± 1.1% | -1.67 ± 0.64% | -2.36 ± 0.58% | -1.92 ± 0.24% | -0.558 ± 0.26% | 0.726 ± 0.71% | 0.69 ± 0.89% | –
18 | C=CCCCCCCCCC(=O)O [10-Undecenoic acid] | 0.758 ± 0.055% | -0.653 ± 0.55% | -0.789 ± 0.79% | -0.96 ± 0.32% | -0.518 ± 0.55% | -0.534 ± 0.037% | -1.07 ± 0.49% | -0.0729 ± 0.15% | –
19 | CCC(C)c1ccccc1O (configuration not stated) [2-(Butan-2-yl)phenol] | – | -1.12 ± 0.63% | – | -2.96 ± 1.4% | -3.27 ± 0.89% | -1.71 ± 1% | -1.22 ± 1.5% | 0.802 ± 0.9% | LDH release cytotoxicity (0.031623 µM): -0.239 ± 0.71%; LDH release cytotoxicity (0.316228 µM): -2.25 ± 1.2%
